Assay results taken from patent US12583921B2, “Targeted anti-SGLT1 avian IgY antibodies as treatment of pre-diabetes, type 2 diabetes and gestational diabetes” (Lay Sciences, Inc., priority 2022, dated 2026).
Marks after values point to notes of the source that are not given here. One block for each compound: values may come before it.

Experiments:
Wistar rats = assay: Oral Glucose Tolerance Test (OGTT) model in Wistar rats, single dose; assay type: in vivo; details: for blood glucose level, mean / area under curve, mean: metformin 200 mg/kg, n = 6
Method: An animal study was conducted to assess the effect of administering the anti-SGLT1 IgY antibody in an Oral Glucose Tolerance Test (OGTT) model in Wistar rats. The OGTT test was performed to determine if an intervention has blocked the intestinal absorption of orally given glucose load, and then lowering of the increase in blood glucose levels is observed. […] The OGTT studies were conducted on overnight fasting animals.

[1] = Method: The animals were acclimatized and were randomly distributed into 6 groups, each group comprised of 6 rats. The rats in group G1 served as a normal control group and were administered the vehicle (normal saline) alone at the dose volume of 10 mL/kg, whereas the rats in groups G2 and G3 were administered metformin and anti-SGLT1 IgY antibody, respectively, at the doses of 200 mg/kg and 500 mg/kg body weight for single administration.
SGLT1 = molecular target: T1, SGLT1 (Homo sapiens, UniProt P13866); assay: Inhibition of glucose uptake in human intestinal cell line CaCo2; assay type: cell-based; details: CaCo2 cells; 800 μg/ml; relative to uptake without intervention; FIG. 3
T1 construct: a human intestinal cell line CaCo2, which expresses SGLT1; endogenous in cells; host or cells: CaCo2
T1 sequence (P13866 1-664): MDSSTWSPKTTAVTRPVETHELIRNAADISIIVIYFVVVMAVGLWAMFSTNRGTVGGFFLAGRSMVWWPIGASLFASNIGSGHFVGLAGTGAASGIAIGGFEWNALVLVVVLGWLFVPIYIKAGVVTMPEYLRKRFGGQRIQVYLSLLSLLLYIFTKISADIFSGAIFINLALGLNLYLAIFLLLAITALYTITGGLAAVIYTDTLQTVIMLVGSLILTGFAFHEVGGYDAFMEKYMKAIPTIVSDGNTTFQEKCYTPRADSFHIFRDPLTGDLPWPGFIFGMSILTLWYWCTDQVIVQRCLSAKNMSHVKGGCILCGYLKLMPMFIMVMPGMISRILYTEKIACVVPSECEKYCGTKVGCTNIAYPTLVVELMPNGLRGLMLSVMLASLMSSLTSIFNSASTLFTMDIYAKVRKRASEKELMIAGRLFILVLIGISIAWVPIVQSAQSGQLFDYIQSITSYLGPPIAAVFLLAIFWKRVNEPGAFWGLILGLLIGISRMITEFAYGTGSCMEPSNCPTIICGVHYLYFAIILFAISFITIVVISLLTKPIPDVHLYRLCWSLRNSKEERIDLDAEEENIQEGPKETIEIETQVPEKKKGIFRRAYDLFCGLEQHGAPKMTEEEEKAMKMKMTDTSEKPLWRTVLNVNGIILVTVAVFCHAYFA
Method: The IgY antibodies were then tested for their ability to inhibit the uptake of glucose in a human intestinal cell line CaCo2, which expresses SGLT1. The data in FIG. 3 are shown as percent inhibition of glucose uptake relative to glucose uptake in the absence of any intervention. […] In the figure, ** is P<0.01 Student's t-tests were performed to compare between the glucose inhibition shown by controls, peptide, and different concentration of IgY antibodies.

[2] = 30, 60, 90 and 120 min after 2 g/kg oral glucose

Compound: CN(C)C(=N)N=C(N)N [Metformin, metformin]
blood glucose level, mean (Wistar rats; 0 minutes (before glucose 2 gm/kg), anti-SGLT1 IgY 500 mg/kg given 30 min before): 108.17 mg/dL
area under curve, mean (Wistar rats; 0 minutes, anti-SGLT1 IgY 500 mg/kg): 0.00 mg/dL
area under curve compared to normal control group G1 (Wistar rats; [2]): Significantly decreased
blood glucose level compared to normal control group G1 (Wistar rats; [2]): Significantly decreased
blood glucose level, mean (Wistar rats; 30 minutes after glucose 2 gm/kg, anti-SGLT1 IgY 500 mg/kg): 161.67** mg/dL
area under curve, mean (Wistar rats; 30 minutes, anti-SGLT1 IgY 500 mg/kg): 8.99* mg/dL
blood glucose level, mean (Wistar rats; 60 minutes after glucose 2 gm/kg, anti-SGLT1 IgY 500 mg/kg): 127.17* mg/dL
area under curve, mean (Wistar rats; 60 minutes, anti-SGLT1 IgY 500 mg/kg): 9.63** mg/dL
blood glucose level, mean (Wistar rats; 90 minutes after glucose 2 gm/kg, anti-SGLT1 IgY 500 mg/kg): 121.50* mg/dL
area under curve, mean (Wistar rats; 90 minutes, anti-SGLT1 IgY 500 mg/kg): 8.29** mg/dL
blood glucose level, mean (Wistar rats; 120 minutes after glucose 2 gm/kg, anti-SGLT1 IgY 500 mg/kg): 114.00** mg/dL
area under curve, mean (Wistar rats; 120 minutes, anti-SGLT1 IgY 500 mg/kg): 7.85** mg/dL
blood glucose level, mean (Wistar rats; 180 minutes after glucose 2 gm/kg, anti-SGLT1 IgY 500 mg/kg): 106.33** mg/dL
area under curve, mean (Wistar rats; 180 minutes, anti-SGLT1 IgY 500 mg/kg): 3.67** mg/dL
Mortality ([1]; male rats, single dose, metformin 200 mg/kg, anti-SGLT1 IgY 500 mg/kg, deaths/animals observed): 0/6
Individual Animal Clinical Signs Observations ([1]; male, Wistar, rat, in vivo, 1 day): 1
Body Weights, mean ([1]; rat, in vivo): 232.63 g

percent inhibition of glucose uptake (SGLT1): able to block the uptake of glucose
Compound: QSGQLFDYIQSITSYLGPP [peptide used as antigen]
